Data: patent US8193326B2, “Nucleic acids encoding novel TERT polypeptides” (GemVax AS, priority 2000, dated 2012)

Tested on: T cells from human peripheral blood mononuclear cells (PBMC)
Test: Induction and proliferation of human T cell response to peptide (3H-thymidine proliferation assay)
Format: cell-based
Conditions: PBMC from four healthy donors primed with peptide-pulsed dendritic cells, re-stimulated with peptide-pulsed autologous PBMC, mean cpm of triplicates
Description: In this experiment, peripheral blood mononuclear cells (PBMC) from four healthy humans (donors “14328”, “14313”, “23244” and “23255”) and were isolated and primed for seven days with dendritic cells pulsed with the SEQ ID NO: 11 peptide derived from the hTERT σ-insert polypeptide, followed by two cycles consisting of seven days re-stimulation with peptide-pulsed autologous PBMC. The dendritic cells were derived from monocytes from peripheral blood. T cells from the resulting bulk: culture were tested in triplicate with or without peptide-pulsed antigen presenting cells (APC) before harvesting after 3 days. To measure the proliferative capacity of the cultures, ^3H-thymidine (3.7×10^4 Bq/well) was added to the culture overnight before harvesting. Cultures with non-pulsed APC or without APC served as controls. Further details of the protocol used are set out below.
T cell clones were obtained from the resulting bulk cultures from non-vaccinated donors 14313 and 23255. […]
PBMCs were separated out from 50 ml of blood (from buffy coat). The cells were counted and re-suspended in complete RPMI-1640/15% pool serum. […]
Bulk cultures were harvested and stimulated with irradiated PBMCs and peptide. If there was high cell death, cultures were lymphoprep separated, otherwise they were counted and resuspended in RPMI/15% pool serum. […]

“SEQ ID NO: 11: peptide derived from the hTERT σ-insert polypeptide (RVAVLWFNFLFKQKPSVSPRG; listed as Homo sapiens)” was tested, and the “proliferative T cell response / peptide-specific T cells (bulk cultures and T cell clones, FIGS. 7-9)” value was “T cells can be expanded in vitro following stimulation with the relevant peptide”.
